Assay results reported in patent EP3426036B1, “CROP ENHANCEMENT” (priority 2016, dated 2017).

Tests used:
[1] = tested on: bread wheat (Triticum aestivum L.) and durum wheat (Triticum durum Desf.); test: Further wheat field trials under controlled and natural drought stress (Example 1e); type: in vivo; settings: for average grain yield increase compared to untreated check / mean TGW increase versus untreated check: multitrial analysis; for average grain yield increase compared to untreated check: all 26 disease-free modalities, 30 or 75 g ha^-1; for mean TGW increase versus untreated check: controlled and natural drought stress, 20 modalities; for grain yield increase compared to untreated check: only trials under controlled drought stress conditions
Excerpt: Wheat field trials were designed as randomized complete blocks with six replicates. Sowing, fertilization and general crop maintenance were done in accordance to locally accepted best practice. Crop protection maintenance products were applied preventatively only if required across all trial area (check and experimental plots and boundary areas) including locally registered seed treatment products, herbicides and insecticides. In case of potential disease attack, DMI and/or contact fungicides were applied preventatively. Application of fungicides from Qo inhibitors (strobilurines) and SDHI groups were not allowed to avoid possible interaction with compound I experimental treatments. Any products with plant growth regulator effects were excluded as well. Pesticides were applied not less than three to four days before or after experimental applications of compound I.
Following assessments were taken: general phytotoxicity at 7 and 14 days after application, general pest damage ratings before harvest, grain yield adjusted to 10% standard moisture (calculation based on fresh grain weight and grain moisture at harvest), thousand grain weight (TGW) adjusted to 10% standard moisture.
Entire plots or only central treated areas were harvested manually using cutters with stationary threshers (trials located in Argentina, Egypt and India) or with small-plot combine-harvesters (trials located in France, Italy and USA).
Single trial statistical analysis of variance (ANOVA) was done with Agstat 1.6 / ACSAP 4.29. Multi-trial analysis was based on paired t-test with comparison of compound I experimental treatments versus untreated checks and was done with TIBCO® Spotfire® 7.0.1.
To minimize risk of environmental impacts from rain on drought stress period and level, all proposed locations were validated through internal Environment and Crop Modelling process. This modelling allowed to calculate the potential drought stress intensity through estimation of climatic cumulative water deficit (sum of all daily water deficit during reproductive stage of wheat development). Daily water deficit was calculated as difference between daily precipitation and daily evapotranspiration by wheat plants. Thirty-eight candidate locations were proposed as suitable for drought stress trials. We performed field trials at fifteen locations from which we present results from the eleven disease-free trials that originated from seven locations: Egypt (Kaha), Italy (Foggia), India (Dongargaon, Mandleshwar and Sanwer) and USA (Woodland, CA; Jerome, ID).
Each field trial had two adjacent blocks: well-watered (WW) block with untreated check plots used for stress level estimation and grain yield reference and water-stressed (WS) block with experimental treatments including untreated check plots. Plot size varied between trials from 8.45 m^2 (Woodland, US) up to 30 m^2 (Kaha, EG) and harvested plot size was from 8.45 m^2 (Woodland, US) up to 20.7 m^2 (India). Seven locally adapted drought sensitive commercial varieties of spring and winter bread wheat (Triticum aestivum L.) and durum wheat (Triticum durum Desf.) were tested: var. Massimo Meridio (Foggia, IT), var. Saha 94 and Sods 12 (Kaha, EG), var. GW322 and GW366 (India), var. Alturas (Jerome, US) and var. Summit 515 (Woodland, US).
To manage drought stress, three types of water irrigation systems were used: precise drip irrigation (Kaha, EG; Foggia, IT; Woodland, US), solid-set sprinkler irrigation (Jerome, US) and flood irrigation (all sites in India). Plants in WW blocks were well irrigated from sowing till harvest to compensate 100% of evapotranspiration demand, targeting the optimum yield achievable in the trial area. Plants in WS blocks were irrigated from planting till the beginning of pre-stress period exactly at the same level of water supply as in WW conditions. […]

Spring wheat = test: Crop enhancement effect on wheat under drought conditions in the field (Example 1d); type: in vivo; settings: non-irrigated; for Grain Yield / TGW: adjusted to 10% standard moisture; for No. of grains per ear: average of 20 ears per plot
Description: Spring wheat (plot size 30m^2) was treated with a single application at BBCH GS 41 (early boot stage) or 49 (first awns visible) with the compound of formula I at a rate of 75.0 g a.i/ha. […] This water supply condition was maintained during the reproductive stages of plant growth (BBCH 55-89). The trial was carried out with six replicates. At the end of the trial, a 20m^2 plot was harvested from each of five replicates. […]

[2] = tested on: detached wheat (Triticum aestivum var. Arina) leaves; test: Detached leaf transpiration and photosynthesis analysis; type: in vivo, Triticum aestivum L.
Description: Winter wheat (Triticum aestivum L.) of the variety Arina was used for the detached leaf transpiration assay. Plants were grown under optimum conditions in growth chambers until BBCH 12. The seedlings were dark-adapted for one hour; the second leaf was cut under water and directly placed into a 1.5 mL test-tube filled with 1 mL of compound I solution. The solution was prepared by dissolving compound I in dimethyl sulfoxide (DMSO) and diluting in water to the final concentrations of 3, 10, 50 and 100 mg L^-1. After weighing the initial weight of the leaf-tube-system, the leaves were placed in growth chambers at 25°C, 60% relative humidity and a light intensity of 150 µmol m^-2 s^-1 at 14 hours photoperiod. Transpiration was quantified by measuring the weight of the leaf-tube-system after 6 and 24 hours. Tubes without leaves solely filled with water were used to correct for evaporation. At 6 hours, the operating quantum efficiency of photosystem II (φPSII), which is a proxy of the photosynthetic activity, was monitored under growth conditions from the middle of the leaf using a PAM-2500 fluorometer (Walz, Effeltrich, Germany). The experimental design was a randomized complete block design with five replications for each treatment; one experimental unit was one leaf per test-tube. Statistical analysis (ANOVA) was done with Agstat 1.6 / ACSAP 4.29.

Soybean plants = test: Crop enhancement effect on soybean under drought conditions, yield analysis (Example 2a); type: in vivo; settings: drought until day 65
Description: Soybean plants were grown in pots. The plants were treated at R1 (36 days after sewing) or R3 (44 days after sewing) with the compound of formula I at 0.75 l/ha. An untreated control plant was also included. After treatment, the plants were subjected to drought conditions until the end of the trial at day 65. Five replicates of the control and each treatment were harvested for analysis of yield and enzymatic activity. […]

glutathione reductase = test: Enzymatic analysis of soybean plants under drought conditions (Example 2a); type: in vivo; settings: 0.75 l/ha at R1 or R3
Description: Soybean plants were grown in pots. The plants were treated at R1 (36 days after sewing) or R3 (44 days after sewing) with the compound of formula I at 0.75 l/ha. An untreated control plant was also included. After treatment, the plants were subjected to drought conditions until the end of the trial at day 65. Five replicates of the control and each treatment were harvested for analysis of yield and enzymatic activity.

[3] = 75.0 g a.i/ha applied at BBCH 41
[4] = 75.0 g a.i/ha applied at BBCH 49

Cn1cc(C(=O)Nc2cccc3c2C2CCC3C2=C(Cl)Cl)c(C(F)F)n1 (stereo not shown) [Compound I, benzovindiflupyr]
general phytotoxicity ([1]; EC 100 at 30 or 75 g ha^-1, BBCH 39 to 55, all trials, 7 and 14 days after application): did not cause any phytotoxic effects
average grain yield increase with 75 g ha^-1 compared to the rate of 30 g ha^-1 ([1]; controlled drought stress conditions): +0.23 dt ha^-1
average grain yield increase compared to untreated check [1]: +5.2%
average grain yield increase compared to untreated check ([1]; 95% CI +1.45 to +3.21 dt ha^-1): +2.33 dt ha^-1
mean TGW increase versus untreated check [1]: +1.9%
mean TGW increase versus untreated check ([1]; 95 % CI [+0.23, +1.13] g 1000 seeds^-1): 0.68 g 1000 seeds^-1
grain yield increase compared to untreated check [1]: +6.0%
grain yield increase compared to untreated check ([1]; 95% CI [+1.69, +4.03] dt ha^-1): +2.86 dt ha^-1
TGW compared to untreated check ([1]; single trial ANOVA, p ≤ 0.05): did not detect any significant effect
grain yield adjusted to 10% standard moisture compared to untreated check ([1]; single trial ANOVA, p ≤ 0.05): did not detect any significant effect
Hectolitre weight (Spring wheat; [3]): 85.68 kg/Hl
Grain Yield (Spring wheat; [3]): 48.00 dT/Ha
TGW (Spring wheat; [3]): 41.56 g
No. of grains per ear (Spring wheat; [3]): 50.80
Hectolitre weight (Spring wheat; [4]): 84.96 kg/Hl
Grain Yield (Spring wheat; [4]): 42.30 dT/Ha
TGW (Spring wheat; [4]): 41.46 g
No. of grains per ear (Spring wheat; [4]): 46.70
leaf transpiration ([2]; 3, 10, 50 and 100 mg L^-1, 0 to 24 hours): significantly decreased leaf transpiration in a dose-dependent manner
leaf transpiration ([2]; 3 and 10 mg L^-1, first 6 hours): decreased only little
leaf transpiration ([2]; 50 and 100 mg L^-1, within 6 hours of treatment): clearly visible
operating quantum efficiency of photosystem II (φPSII) ([2]; at 6 hours, 3 to 100 mg L^-1): did not show an impact
Dry weight of pods (Soybean plants; 0.75 l/ha @ R1): 114.8 % of control
Dry weight of pods (Soybean plants; 0.75 l/ha @ R3): 122.7 % of control
production of the enzyme glutathione reductase compared to the untreated control (glutathione reductase): increase in the production of the enzyme glutathione reductase
